The target of the test is T1, full-length recombinant rat vitamin D receptor (VDR) (Rattus norvegicus, UniProt P13053).
T1 sequence (P13053 1-423): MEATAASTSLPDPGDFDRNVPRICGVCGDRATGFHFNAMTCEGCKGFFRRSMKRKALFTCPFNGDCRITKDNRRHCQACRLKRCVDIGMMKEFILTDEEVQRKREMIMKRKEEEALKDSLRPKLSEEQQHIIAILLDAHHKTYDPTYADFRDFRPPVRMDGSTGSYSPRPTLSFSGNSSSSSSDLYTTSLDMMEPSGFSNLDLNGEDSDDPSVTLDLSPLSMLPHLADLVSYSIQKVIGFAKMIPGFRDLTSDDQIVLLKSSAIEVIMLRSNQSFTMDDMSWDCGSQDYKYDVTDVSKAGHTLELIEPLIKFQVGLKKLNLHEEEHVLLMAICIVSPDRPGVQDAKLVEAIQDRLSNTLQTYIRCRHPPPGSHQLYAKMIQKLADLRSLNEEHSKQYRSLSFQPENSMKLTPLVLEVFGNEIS
Put plainly: competitive radioligand displacement. Format: binding. A general note: Displacement assays read how much labelled ligand stays bound in the presence of the test substance.

Among the data in PMC4601567 (Steroids, 2014) are Ki values, retold here.

By pKi is commonly meant the negative decadic logarithm of the Ki, by convention in mol/L.

The structures appear in SMILES notation. pKi: −log10 of the molar value.

`C=C1[C@H](O)CC(=C/C=C2\CCC[C@]3(C)[C@@H]([C@H](C)/C=C/C[C@@H](C)O)CC[C@@H]23)C[C@H]1O` [8a, (20R,25R)-2-Methylene-19,26-dinor-22-(E)-ene-1α,25-dihydroxyvitamin D3]: the pKi was 10.05.
To `C=C1[C@H](O)CC(=C/C=C2\CCC[C@]3(C)[C@@H]([C@H](C)/C=C/C[C@H](C)O)CC[C@@H]23)C[C@H]1O` [8b, (20R,25S)-2-Methylene-19,26-dinor-22-(E)-ene-1α,25-dihydroxyvitamin D3] belongs 9.52; to `C=C1[C@H](O)CC(=C/C=C2\CCC[C@]3(C)[C@@H]([C@@H](C)/C=C/C[C@@H](C)O)CC[C@@H]23)C[C@H]1O` [9a, (20S,25R)-2-Methylene-19,26-dinor-22-(E)-ene-1α,25-dihydroxyvitamin D3], 10.10; to `C=C1[C@H](O)CC(=C/C=C2\CCC[C@]3(C)[C@@H]([C@@H](C)/C=C/C[C@H](C)O)CC[C@@H]23)C[C@H]1O` [9b, (20S,25S)-2-Methylene-19,26-dinor-22-(E)-ene-1α,25-dihydroxyvitamin D3], 9.70.
For `C[C@H](/C=C/[C@H](C)C(C)(C)O)[C@H]1CC[C@H]2/C(=C/C=C3C[C@@H](O)C[C@H](O)C3)CCC[C@]12C` [compound 2, 19-Nor-1α,25-dihydroxyvitaminD2 (Zemplar)], the pKi was 10.00.
Consider `C=C1[C@H](O)CC(=C/C=C2\CCC[C@]3(C)[C@@H]([C@H](C)/C=C/CC(C)(C)O)CC[C@@H]23)C[C@H]1O` [compound 6, 2-Methylene-19-nor-22(E)-ene-1α,25-dihydroxyvitamin D3], for which the pKi was 10.22.
